Experiments:
[1] = tested on: endometriosis-related pain; experiment: mouse model of endometriosis: pressure pain thresholds (mechanical hyperalgesia); type: in vivo, C57BL/6 mice; details: versus vehicles; for abdominal retraction threshold: day 33 to day 40 (FIG. 9B); for paw withdrawal threshold: hind paw, day 33 to day 40 (FIG. 9C)
Procedure: (§1) Mature (approximately 8-week-old) female C57BL/6 mice were purchased from Harlan Laboratories (Derby, UK) and were allowed to acclimate for 1 week before surgery. Mice were maintained on standard chow and water available ad libitum and were housed in environmentally controlled facilities illuminated between 7:00 AM and 7:00 PM. All the animal procedures were performed in accordance with legal requirements.
(§2) Typically, menstruation was induced in adult donor mice (approximately 8 weeks of age) using a protocol developed as aforemented. In brief, long-term ovariectomized (OVE) mice (day 1) were primed with s.c. injections of 100 ng of estradiol-17β (days 7 to 9), treated with progesterone (P4; Sigma-Aldrich, Dorset, UK) delivered via a SILASTIC implant (Dow Corning Corp, Midland, Mich.) from days 13 to 19, and injected with 5 ng of estradiol-17β in sesame oil on days 13, 14, and 15. Decidualization was induced in one uterine horn using […] of oil (day 15), and endometrial tissue in the process of being shed from the decidualized horn was recovered from mice culled on day 19, 4 hours after P4 withdrawal (removal of pellet) by opening the horn longitudinally in a petri dish and scraping the tissue away from the myometrial layer using a scalpel. The tissue mass was suspended in 0.2 mL of PBS and passed through a 19-gauge needle before being injected i.p. into anesthetized recipient mice (approximately 8 weeks of age) that had been previously ovariectomized and implanted with an estradiol-17β (Sigma-Aldrich) SILASTIC implant (FIG. 6). Tissue from one decidualized donor horn was used to inoculate each recipient mouse (approximately 40 mg tissue/0.2 mL PBS per mouse) on day 19. […]
Pressure pain thresholds were assessed by a commercially available pain evaluation kit (Touch Test® Sensory Evaluators (North Coast Medical Inc., CA, U.S.A.). This pain evaluation kit has different probes (or needles) of different diameters, which were respectively stab the abdomen or the palmar side of the hind paw of mice. Mice were instructed to signal when the stimulus became painful, and observed which size cause painful. Threshold levels (gravity, g) were assessed before and after the test, and the average of three measures were calculated, for evaluating abdominal retraction threshold (g) or paw withdrawal threshold (g) of each mouse. […]

ES-2 cells = experiment: cell cycle analysis by flow cytometry using propidium iodide DNA staining, ES-2; type: cell-based, human; details: after 96 h of treatment
Excerpt: (§3) For anti-ribosome biogenesis assays, including cell growth, cell migration and cell cycle analysis, ovarian clear cells were maintained for five days in culture medium with or without RNA polymerase I inhibitor, CX-5461 (Selleckchem, Houston, Tex.) or GSK2126458 (GlaxoSmithKline, Middlesex, United Kingdom).
(§4) Please refer to FIGS. 5A to 5D, which illustrate that RNA polymerase 1 inhibition suppresses cell growth and mobility of ovarian clear cells. FIG. 5A is depicted to cells treated with the RNA polymerase 1 inhibitor, CX-5461, at a final concentration of 25 nM. CX-5461 effects on downstream effectors of ribosome biogenesis were measured by qPCR at the indicated time points. Data were represented as means of triplicates with standard variations. FIG. 5B is depicted to CX-5461 effects on cell growth were assessed via MTT assay. FIG. 5C is depicted to cell mobility measured using wound-healing migration assays. Cells migrating into the detection zone were counted and averaged from eight replicates. FIG. 5D is depicted to treated cells that were analyzed at the indicated time points by flow cytometry using propidium iodide DNA staining.

[2] = tested on: effectors of ribosome biogenesis (selected snoRNAs and RPs); experiment: qPCR of effectors of ribosome biogenesis in ovarian clear cell carcinoma cells; type: cell-based, human; details: ES-2 and TOV-21G, following 24 h of treatment
Excerpt: as §3
(§5) Please refer to FIGS. 4A to 4E, which illustrate that mTOR/c-Myc inhibition suppresses cell growth and mobility of ovarian clear cells according to an embodiment of the present invention. FIG. 4A is depicted to ovarian cancer cell lines, ES-2 and TOV-2IG, treated with the mTOR/c-Myc inhibitor, GSK2126458, at a final concentration of 50 nM. GSK2126458 effects on effectors of ribosome biogenesis were measured by qPCR at the indicated time points. […] FIG. 4B is depicted to GSK2126458 effects on cell growth were assessed via MTT assay. FIG. 4C is depicted to cell mobility measured using wound-healing migration assays. Cells migrating into the detection zone were counted and averaged from eight replicates. […] FIG. 4E is depicted to cell cycle inhibited by GSK2126458 after 48 hours of treatment and analyzed by flow cytometry using propidium iodide DNA staining. […]
(§6) Please refer to FIGS. 5A to 5D, which illustrate that RNA polymerase 1 inhibition suppresses cell growth and mobility of ovarian clear cells. […] FIG. 5B is depicted to CX-5461 effects on cell growth were assessed via MTT assay. […]

TOV-21G cells = experiment: cell cycle analysis by flow cytometry using propidium iodide DNA staining, TOV-21G; type: cell-based, human; details: after 96 h of treatment
Excerpt: as §3, §4

[3] = tested on: ovarian clear cell carcinoma cell lines ES-2 and TOV-21G; experiment: cell growth via MTT assay; type: cell-based, human; details: after 48 h of treatment
Excerpt: as §3, §5, §6

endometriosis lesions = experiment: mouse model of endometriosis: lesion numbers; type: in vivo, C57BL/6 mice; details: compared to respective vehicle; CX-5461 1.25 mg/100 μL thrice per week, GSK2126458 0.075 mg/100 μL five times per week, three weeks
Procedure: as §1
as §2, with “scalpel.” for “scalpel. The tissue mass was suspended in 0.2 mL of PBS and passed through a 19-gauge needle before being injected i.p. into anesthetized recipient mice (approximately 8 weeks of age) that had been previously ovariectomized and implanted with an estradiol-17β (Sigma-Aldrich) SILASTIC implant (FIG. 6). Tissue from one decidualized donor horn was used to inoculate each recipient mouse (approximately 40 mg tissue/0.2 mL PBS per mouse) on day 19.”

[4] = tested on: ovarian clear cell carcinoma cell lines ES-2 and TOV-21G; experiment: wound-healing migration assay (cell mobility); type: cell-based, human; details: after 48 h of treatment
Excerpt: as §3, §5, §6

[5] = tested on: inflammatory cells (small peritoneal macrophages, neutrophils) in abdominal cavity; experiment: mouse model of endometriosis: inflammatory cells in abdominal cavity; type: in vivo, C57BL/6 mice; details: comparing with naive, sham and vehicles; for small peritoneal macrophages in abdominal cavity: three weeks of treatment (FIG. 8A); for neutrophils in abdominal cavity: three weeks of treatment (FIG. 8B)
Procedure: as §1
Typically, menstruation was induced in adult donor mice (approximately 8 weeks of age) using a protocol developed as aforemented. In brief, long-term ovariectomized (OVE) mice (day 1) were primed with s.c. injections of 100 ng of estradiol-17β (days 7 to 9), treated with progesterone (P4; Sigma-Aldrich, Dorset, UK) delivered via a SILASTIC implant (Dow Corning Corp, Midland, Mich.) from days 13 to 19, and injected with 5 ng of estradiol-17β in sesame oil on days 13, 14, and 15. Decidualization was induced in one uterine horn using […] of oil (day 15), and endometrial tissue in the process of being shed from the decidualized horn was recovered from mice culled on day 19, 4 hours after P4 withdrawal (removal of pellet) by opening the horn longitudinally in a petri dish and scraping the tissue away from the myometrial layer using a scalpel. The tissue mass was suspended in 0.2 mL of PBS and passed through a 19-gauge needle before being injected i.p. into anesthetized recipient mice (approximately 8 weeks of age) that had been previously ovariectomized and implanted with an estradiol-17β (Sigma-Aldrich) SILASTIC implant (FIG. 6). Tissue from one decidualized donor horn was used to inoculate each recipient mouse (approximately 40 mg tissue/0.2 mL PBS per mouse) on day 19. In FIG. 6, there are four groups: B, injecting recipient mice with EV once and vehicle of CX-5461 every Monday, Wednesday and Friday for three weeks; GSK, injecting recipient mice with EV once and GSK2126458 on Monday to Friday for three weeks; A, injecting recipient mice with EV once and vehicle of GSK2126458 on Monday to Friday for three weeks; Sham, injecting recipient mice with EV once (no endometriosis, hormone treatment); Naive, mice without endometriosis or treated with any hormone or drug.
[…] E2 (E2, 100 ng/100 μL or 5 ng/100 μL) was diluted in sesame oil. Estradiol valerate (EV, 500 ng/100 μL) was diluted in sesame oil. P4 pellet was fused with progesterone (P4; Sigma-Aldrich, Dorset, UK) delivered via a SILASTIC implant (Dow Corning Corp, Midland, Mich.). […]

[6] = tested on: ovarian clear cell carcinoma cell lines ES-2 and TOV-21G; experiment: DNA synthesis (BrdU incorporation); type: cell-based, human; details: after 48 h of treatment
Excerpt: as §3
(§7) Please refer to FIGS. 4A to 4E, which illustrate that mTOR/c-Myc inhibition suppresses cell growth and mobility of ovarian clear cells according to an embodiment of the present invention. FIG. 4A is depicted to ovarian cancer cell lines, ES-2 and TOV-2IG, treated with the mTOR/c-Myc inhibitor, GSK2126458, at a final concentration of 50 nM. GSK2126458 effects on effectors of ribosome biogenesis were measured by qPCR at the indicated time points. Data were represented as means of triplicates with standard variations. FIG. 4B is depicted to GSK2126458 effects on cell growth were assessed via MTT assay. FIG. 4C is depicted to cell mobility measured using wound-healing migration assays. Cells migrating into the detection zone were counted and averaged from eight replicates. FIG. 4D is depicted to DNA synthesis (BrdU incorporation) of cells influenced by GSK2126458. FIG. 4E is depicted to cell cycle inhibited by GSK2126458 after 48 hours of treatment and analyzed by flow cytometry using propidium iodide DNA staining. The cell cycle of many cells was inhibited and arrested at G1 phase.

[7] = tested on: endometriosis-related pain; experiment: mouse model of endometriosis: tunnel entries (overall activity); type: in vivo, C57BL/6 mice; details: versus vehicles; day 33 to day 40 (FIG. 9A)
Procedure: as §1
Typically, menstruation was induced in adult donor mice (approximately 8 weeks of age) using a protocol developed as aforemented. In brief, long-term ovariectomized (OVE) mice (day 1) were primed with s.c. injections of 100 ng of estradiol-17β (days 7 to 9), treated with progesterone (P4; Sigma-Aldrich, Dorset, UK) delivered via a SILASTIC implant (Dow Corning Corp, Midland, Mich.) from days 13 to 19, and injected with 5 ng of estradiol-17β in sesame oil on days 13, 14, and 15. […]
On day 33 to day 40, some behavior tests were scored from tunnel entries and pressure pain thresholds. Mice freely moved in three cages connected by tunnels, and numbers of tunnel entered by each mouse were measured in five minutes, and the average of three measures were calculated, for evaluating overall activity of each mouse. […]

[8] = tested on: ovarian clear cell carcinoma cell lines ES-2 and TOV-21G; experiment: cell cycle analysis by flow cytometry using propidium iodide DNA staining (both cell lines, result in words); type: cell-based, human; details: after 48 hours of treatment (FIG. 4E)
Excerpt: as §3, §7

SMILES | abdominal retraction threshold [1] | paw withdrawal threshold [1] | cell arrest at G2/M-phase (ES-2 cells) [%] | cell death (ES-2 cells) [%] | expression of the selected snoRNAs and RPs (qPCR, FIG. 5A) ([2]; CX-5461 at 25 nM) | expression of the selected snoRNAs and RPs (qPCR, FIG. 4A) ([2]; FIG. 4A legend: GSK2126458 at 50 nM) | cell arrest at G2/M-phase (TOV-21G cells) [%] | cell death (TOV-21G cells) [%] | cell proliferation rate [3] | lesion numbers (endometriosis lesions) | cell mobility rate [4] | small peritoneal macrophages in abdominal cavity [5] | neutrophils in abdominal cavity [5] | DNA synthesis [6] | overall activity (tunnel entries in five minutes) [7] | cell cycle arrest [8] | cells of sub-G1 phase (implying cell death) [8]
Cc1cnc(CNC(=O)c2c(=O)c3ccc(N4CCCN(C)CC4)nc3n3c2sc2ccccc23)cn1 [CX-5461] | higher | higher | 48.1 | 12.3 | reduced | reduced | 52.3 | 23.4 | decreased | significantly reduced | decreased | significantly reduced | significantly reduced | inhibition | more active | – | –
COc1ncc(-c2ccc3nccc(-c4ccnnc4)c3c2)cc1NS(=O)(=O)c1ccc(F)cc1F [GSK2126458, 2,4-difluoro-N-[2-methoxy-5-[4-(4-pyridazinyl)-6-quinolinyl]-3-pyridinyl]benzenesulfonamide] | higher | higher | – | – | – | – | – | – | decreased | significantly reduced | decreased | significantly reduced | significantly reduced | inhibition | more active | cell arrest at G1-phase | increased
